What was measured:
[1] = tested on: col6a1 zebrafish morphants; experiment: Birefringence (muscle structure) in col6a1 zebrafish morphants; assay type: in vivo; conditions: 48 hpf
Procedure: Muscle structure was assessed by birefringence analysis at 48 hpf, a time when muscle tissue is fully developed and organized muscle fibers start to show anisotropic features. A high percentage of severe birefringence abnormality (>75%, FIG. 6C) was detected in col6a1 morphants, indicating major defects of muscle fiber development and organization.
Morpholino antisense injection and treatment. Knock-down of col6a1 gene expression was obtained with a previously published morpholino ^[25] with sequence GAGAGCGGAAGACGAACCTTCATTC (SEQ ID NO: 2; GeneTools, Inc.). A control morpholino with no sequence homology in the zebrafish genome was used in parallel (CCTCTTACCTCAGTTACAATTTATA; SEQ ID NO: 3). Zebrafish eggs from wild-type matings were injected at the 1-2 cell stage with approximately 10 nL of 0.1 mm morpholino solution (corresponding to 4 ng of morpholino) using a WPI pneumatic PicoPump PV820 injector (World Precision Instruments, Inc.). […]
Birefringence. Muscle structure was monitored by birefringence analysis, taking advantage of muscle anisotropy, which is the ability of muscle fibers to refract polarized light. […] With this set-up, light refracted by muscle fibers (due to the pseudo-crystalline array of sarcomeres) is transmitted and analyzed. Integrated area of birefringence was calculated using ImageJ software. […]

[2] = tested on: col6a1 zebrafish morphants; experiment: Spontaneous coiling events in col6a1 zebrafish morphants; assay type: in vivo; conditions: 24 hpf, 3 hours of treatment, 0.1, 1 or 10 μm
Procedure: Zebrafish embryos were injected with col6a1 morpholino at the 1-cell stage, dechorionated at 20 hpf and treated at 21 hpf with 0.1, 1 or 10 μm of either TR001 or 63. DMSO-treated embryos injected with a scrambled morpholino were used as a control. […] It should be noted that in these protocols, embryos were exposed to drugs for a longer period of time than in the spontaneous coiling experiments. This difference may help to explain why TR001 was as effective at 0.1 μm as it was at 1 and 10 μm.
Morpholino antisense injection and treatment. Knock-down of col6a1 gene expression was obtained with a previously published morpholino ^[25] with sequence GAGAGCGGAAGACGAACCTTCATTC (SEQ ID NO: 2; GeneTools, Inc.). A control morpholino with no sequence homology in the zebrafish genome was used in parallel (CCTCTTACCTCAGTTACAATTTATA; SEQ ID NO: 3). […]
Motor activity. The number of spontaneous coiling events performed in 15 seconds by single zebrafish embryos was recorded at 24 hpf by light microscopy. Touch-evoked escape responses were recorded at 48 hpf by observing the ability of zebrafish embryos to escape after a tail-touch with a little tip. […]

[3] = tested on: HeLa cells; experiment: Oxygen consumption rate of HeLa cell monolayers (Seahorse XF24); assay type: cell-based; conditions: ~2 h treatment
Excerpt: A thorough evaluation of toxicity is critical for advancing TR001 to in vivo studies. […] To more thoroughly examine mitochondrial toxicity, we analyzed oxygen consumption rates (OCRs) using the Seahorse XF24 extracellular flux analyzer. This allowed us to assess the effects of TR001 on mitochondrial respiration and ATP synthesis. […] Consequently respiratory control ratios (i.e., the ratios between ADP-stimulated and basal respiration) were not affected across the concentrations tested (FIG. 5B). Complex III inhibitor antimycin A shuts down the electron transport chain at the bc1 complex and was used to account for oxygen leak.
Measurement of respiration. Mitochondrial oxygen consumption of isolated mitochondria or HeLa cell monolayer was assessed with the Seahorse Extracellular Flux Analyzer XF24 (Seahorse Bioscience, Billerica, MA, USA). Isolated mouse liver mitochondria: Mitochondrial assay solution contained 220 mm mannitol, 70 mm sucrose, 25 mm MOPS-Tris, 10 mm Pi-Tris, 5 mm MgCl2, 1 mm EGTA-Tris, 0.2% fatty acid free BSA, 5 mm succinate and 2 μm rotenone, pH 7.4. Mitochondria (5 μg, suspended in 50 μL mitochondrial assay solution) were added to each well of an XF24 cell culture microplate, centrifuged at 2000 g for 20 min at 4° C. and then supplemented with 450 μL of mitochondrial assay solution containing 4 mm ADP to initiate the experiments. […]

[4] = tested on: mtPTP; experiment: Ca2+ retention capacity (CRC) of isolated mouse liver mitochondria; assay type: biochemical
Procedure: CRC determines the Ca^2+ threshold required for mtPTP activation; inhibitors of mtPTP are expected to increase the Ca^2+ threshold required for mtPTP induction. Extramitochondrial Ca^2+ changes are detected using the membrane-impermeant Ca^2+ indicator, Calcium Green-5N.
Isolation of mitochondria. C57BL6/N mouse liver mitochondria were prepared from 2 to 6 month old male mice by standard differential centrifugation. Mice fed ad libitum were euthanized with CO2 followed cervical dislocation, their livers were existed and placed in a glass beaker containing ice-cold isolation buffer (IB: 0.25 m sucrose, 10 mm Tris-HCl, 0.1 mm EGTA-Tris, pH 7.4) supplemented with fatty acid free bovine serum albumin. Livers were then cut into small pieces with scissors, rinsed with ice-cold IB, and passed through a pre-chilled Potter homogenizer with Teflon pestle. The homogenate (˜30 mL per liver) was transferred to centrifuge tubes, and unbroken cells and nuclei were removed by centrifugation at 700 g for 10 min at 4° C. The supernatant containing mitochondria and other organelles was transferred to new tubes and centrifuged at 6000 g for 10 min at 4° C. The resulting supernatant was discarded and mitochondrial pellet was carefully suspended in ice-cold IB and spun at 9500 g for 5 min at 4° C. The pellet was suspended in IB to give a protein concentration of ˜60-80 mg/mL and stored on ice. Experiments were started immediately and completed within 5 h. Protein concentration was determined by the Biuret method.
Assessment of Ca^2+ retention capacity (CRC). CRC of isolated mouse liver mitochondria was assessed as follows: First, 0.1 mL of SAB were dispensed to a 96-well black assay plate in the presence of 2% DMSO (control wells) or varying concentrations of test compounds, in 1:2 serial dilutions. Then, 0.1 mL of 0.5 mg/mL mitochondria in SAB devoid of respiratory substrates, but supplemented with 1 μm Calcium Green-5N were added to all wells of the assay plate. A train of 10 μm CaCl2 pulses was added at 2 min intervals, and fluorescence intensity (ex/em 485/535 nm) was read on Tecan Infinite F200 plate reader.

## Cc1ccc(Cl)cc1NC(=O)c1cn(-c2ccc(F)c(O)c2)nn1 [TR001, N-(5-chloro-2-methylphenyl)-1-(4-fluoro-3-hydroxyphenyl)-1H-1,2,3-triazole-4-carboxamide]
[1]
  muscle structure by birefringence: significantly rescued
[2]
  spontaneous coiling events: partially rescued the defect
[3]
  mitochondrial dysfunction (OCR) in intact cells: did not cause mitochondrial dysfunction
[4]; TR001 in combination with 2 μm CsA
  CRC effect in combination with CsA: additive with CsA
[4]; compound treated CRC to DMSO treated CRC0 ratio, 1.25 μM, average ± SEM, n = 3-25
  CRC/CRC0 at 1.25 μM: 6.8 ± 0.4
[4]; mouse liver mitochondria
  maximal efficacy as defined by CRC/CRC0 ratio: ~10

Reference: US12398110B2, “Second generation inhibitors of mitochondrial permeability transition pore with improved plasma stability” (Oregon Health & Science University, priority 2019, dated 2025)
